≈ marks a conversion by molar mass, not a printed value.
Assays:
MRSA strain MB #5180 [1] = test: antibiotic disc-diffusion assay of MRSA activity, relative to imipenem; type: cell-based, methicillin resistant Staphylococcus aureus; details: multiples of the relative potency of imipenem
Description: In vitro antibacterial activity determined in accordance with the protocol set forth below is predictive of in vivo activity, when the compounds are administered to a mammal infected with a susceptible bacterial organism.
(§1) Minimum inhibitory concentrations for different compounds may be calculated using the procedures set forth in Lorian, V. (ed.) Antibiotics in Laboratory Medicine (3rd ed.) pages 30-35 if desired. However, by comparing disc sensitivities to a known compound, e.g., imipenem, this calculation is not required to recognize MRSA/MRCNS activity.
Assay Used to Test the Activities of Carbapenems Against Methicillin-Resistant Staphylococci: The assay is an antibiotic disc-diffusion assay modeled after the method described by Bauer and Kirby, et al.1, with the following modifications and clarifications:
Agar: This assay employs an agar depth of 2 mm instead of 4 mm.
Zone Readings: The inner, completely clear zone is measured.
Culture Storage: Frozen vials of strains are stored at -80° C. Working slants are prepared from frozen vials and are used for 1 month to 6 weeks. For methicillin-resistant strains the slant medium is Muleller Hinton Agar; for control strains the slant medium is Brain Heart Infusion Agar. After inoculation from frozen vials, methicillin-resistant slant cultures are incubated at 28° C. until good growth is achieved (approximately 20 hours); slants of control strains are incubated at 37° C. for 16-18 hours.
Preparation of Methicillin-Resistant Inocula for Assay: For methicillin-resistant strains, inoculate 0.5 ml of BHIB heavily (to achieve approximately 1×10^8-109 cfu/ml) from the slant culture by using a sterile cotton tipped applicator. […]
Methicillin-resistant Staphylococci: With a cotton tipped applicator, swab enough growth off the grown plates into 1 ml BHIB to achieve a visual concentration of approximately 1×10^9 cfu/ml. […] Add measured quantities of PBS to dilutions to achieve % T @ 1% above or below the % T measurement for the control cultures. […]

MRSA strain MB #5180 [2] = test: minimum inhibitory concentration; type: cell-based, methicillin resistant Staphylococcus aureus; details: Staphylococcus aureus, imipenem (standard)
Description: as §1
All compounds below were tested against MRSA strain MB #5180. […]

MIC (MRSA strain MB #5180 [2]) [µg/mL]	SMILES	MRSA Activity (MRSA strain MB #5180 [1])
–	C[C@@H](O)[C@H]1C(=O)N2C(C(=O)O)=C3c4cccc(-c5ccccc5)c4CC[C@@H]3[C@H]12	1.9
–	C[C@@H](O)[C@H]1C(=O)N2C(C(=O)O)=C3c4ccccc4CC[C@@H]3[C@H]12	1.3
–	C[C@@H](O)[C@H]1C(=O)N2C(C(=O)O)=C3c4cc(-c5ccccc5)ccc4CC[C@@H]3[C@H]12	18.0
46 (≈ 154 µM)	C[C@@H](O)[C@H]1C(=O)N2C(C(=O)O)=C(SCCN=CN)C[C@H]12 [imipenem]	–
